Test results from patent US20110306600A1, “NOVEL THERAPEUTIC COMPOUNDS” (Grunenthal GmbH, priority 2010, published 2011).

Experiment: Thermal tail-flick test on rats
Assay type: in vivo, rat
Conditions: 3 mg/kg injection in saline, against placebo, TFL measured approximately every hour
Method: Therapeutic Solutions: The compound 2 90 mg was dissolved in 30 ml of saline solution and the injection volume was calculated as 1 ml/kg to achieve 3 mg/kg of compound of Formula 31. The placebo solution was identical except it is devoid of any drug.
Tail-Flick Test: The experimentation was started by selecting ten at least 90-100 days old and were all weighed to determine the volume of experimental and placebo solution. Each rat, was habituated for three days to handling and the tail flick procedure and without heat exposure. In the administration, each animal was only used for one day of experiments, and given only one dose of drug, or placebo solution. The technique of D'Amour and Smith (1941) relies on latency to flick of the tail from onset of a focused beam of intense light. This method, employed for decades, has now been augmented by the ability to monitor temperature at the site of exposure. Columbus Instruments model TF-2 model was warmed, on the day of the experiment, for at least 30 minutes. The intensity of the lamp was adjusted so that baseline tail-flick latency for rats is equal to approximately 2.0 seconds. The intensity was set to 40% as this was determined to be the ideal intensity from the intensity response curve. […] The baseline value was determined for each animal prior to injection. The TFL was measured approximately every hour. The semilog means were calculated.

CC12CC3CC(C)(C1)CC(NC(=O)C1(CN)CCCCC1)(C3)C2 [Formula 2]
time course of antinociceptive effect in the thermal tail flick test (FIG. 1): antinociceptive effect
